This note sets out measurements from publication PMC6812009, “Covalent Aurora A regulation by the metabolic integrator coenzyme A” (Redox Biology, 2019).

As usually defined, the IC50 is the concentration at which inhibition is half-maximal.

In one assay the test system is mouse oocytes. Put plainly: Microinjection of mouse oocytes, spindle formation and chromosome alignment. In kind it is cell-based. To be noted: injected with 3 mM compound, 17 h after GV release. As for the experimental part: Mouse oocytes arrested at the GV stage were injected with different concentrations of CoA (0.15–5 mM). Since the commercial preparation of CoA used for microinjection contained 3 mol of lithium ions per mole of CoA, control oocytes were injected with an equivalent amount of LiCl. In a separate study, oocytes were injected with 3 mM CoA, ADP, AMP, 3′-5′-ADP and pantetheine. To examine the effect of injected compounds on spindle formation, oocytes were fixed 17 h after GV release and stained for alpha-tubulin (green) and DNA (blue).

In the next assay the target is T1, C290A Aurora A (Homo sapiens, UniProt O14965, C290A).
T1 construct: For enzyme and DSF assays, full-length human Aurora A and Aurora B and 1–43 TPX2 were produced; made in house; host or cells: E. coli BL21 (DE3) pLysS
T1 sequence (O14965 whole entry C290A): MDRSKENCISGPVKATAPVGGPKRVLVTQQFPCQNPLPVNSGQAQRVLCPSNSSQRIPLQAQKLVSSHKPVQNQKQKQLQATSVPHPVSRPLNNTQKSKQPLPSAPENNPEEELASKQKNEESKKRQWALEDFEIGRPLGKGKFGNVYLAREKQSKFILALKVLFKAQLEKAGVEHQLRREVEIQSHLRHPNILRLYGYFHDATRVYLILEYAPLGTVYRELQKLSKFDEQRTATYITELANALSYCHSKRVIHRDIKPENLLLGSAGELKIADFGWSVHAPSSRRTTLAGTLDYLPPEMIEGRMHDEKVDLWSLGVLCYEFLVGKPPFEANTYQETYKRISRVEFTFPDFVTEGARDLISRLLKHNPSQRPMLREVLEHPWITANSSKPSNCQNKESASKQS
Kind of assay: Thermal shift assay (differential scanning fluorimetry). The format is binding. To be noted: 5 mM ATP or 5 mM CoA. As for the experimental part:
(§1) Asp274Asn and Thr217Glu Aurora A mutants were generated by PCR-site directed mutagenesis, expressed and purified as described previously. Cys290Ala Aurora A was generated using standard procedures, and purified as described.
(§2) Thermal-shift assays were performed with a StepOnePlus Real-Time PCR machine (Life Technologies) using Sypro-Orange dye (Invitrogen) and thermal ramping (0.3 °C in step intervals between 25 and 94 °C). All proteins were diluted to a final concentration of 5 μM in 50 mM Tris/HCl, pH 7.4 and 100 mM NaCl in the presence or absence of the indicated concentrations of ligand (final DMSO concentration no higher than 4 % v/v). CoA, dephosphoCoA or kinase inhibitors diluted from 10 mM DMSO stocks were assayed as described previously. Normalized data were processed using the Boltzmann equation to generate sigmoidal denaturation curves, and average Tm/ΔTm values calculated as previously described using GraphPad Prism software.

The next assay addresses T2, T217E Aurora A (Homo sapiens, UniProt O14965, T217E).
T2 construct: For enzyme and DSF assays, full-length human Aurora A and Aurora B and 1–43 TPX2 were produced; made in house; host or cells: E. coli
T2 sequence (O14965 1-403 T217E): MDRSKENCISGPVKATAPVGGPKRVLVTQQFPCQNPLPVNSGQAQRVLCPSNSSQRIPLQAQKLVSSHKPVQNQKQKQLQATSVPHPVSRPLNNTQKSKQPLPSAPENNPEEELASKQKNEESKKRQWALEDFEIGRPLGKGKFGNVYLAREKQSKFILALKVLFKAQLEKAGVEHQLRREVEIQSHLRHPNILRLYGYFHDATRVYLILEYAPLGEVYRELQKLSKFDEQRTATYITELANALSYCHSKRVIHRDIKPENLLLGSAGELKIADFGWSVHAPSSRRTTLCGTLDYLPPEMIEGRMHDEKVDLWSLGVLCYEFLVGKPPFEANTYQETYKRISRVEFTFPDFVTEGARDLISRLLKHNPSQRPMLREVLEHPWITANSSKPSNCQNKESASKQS
Described as above. The format is binding. The note with it: 5 mM ATP, 5 mM CoA or 0.1 mM MLN8237. As for the experimental part: as §1, §2

In assay [1] the target is T3, kinase-dead D274N (inactive) Aurora A (Homo sapiens, UniProt O14965, D274N).
T3 construct: For enzyme and DSF assays, full-length human Aurora A and Aurora B and 1–43 TPX2 were produced; 6His (N); made in house; host or cells: E. coli
T3 sequence (O14965 whole entry D274N): as the sequence (O14965 whole entry C290A) above, with D274N, A290C counted along it
The description is as above. The note with it: 5 mM ATP or 5 mM CoA; CoA DTT-dependent. In kind it is binding. As for the experimental part:
as §1, §2

Assay [2] addresses T4, WT Aurora A (T288 phosphorylated, active) (Homo sapiens, UniProt O14965).
T4 construct: Bacterially expressed full-length His-Aurora A was used to determine the IC50 value for CoA; made in house; host or cells: E. coli BL21 (DE3) pLysS
T4 sequence (O14965 1-403): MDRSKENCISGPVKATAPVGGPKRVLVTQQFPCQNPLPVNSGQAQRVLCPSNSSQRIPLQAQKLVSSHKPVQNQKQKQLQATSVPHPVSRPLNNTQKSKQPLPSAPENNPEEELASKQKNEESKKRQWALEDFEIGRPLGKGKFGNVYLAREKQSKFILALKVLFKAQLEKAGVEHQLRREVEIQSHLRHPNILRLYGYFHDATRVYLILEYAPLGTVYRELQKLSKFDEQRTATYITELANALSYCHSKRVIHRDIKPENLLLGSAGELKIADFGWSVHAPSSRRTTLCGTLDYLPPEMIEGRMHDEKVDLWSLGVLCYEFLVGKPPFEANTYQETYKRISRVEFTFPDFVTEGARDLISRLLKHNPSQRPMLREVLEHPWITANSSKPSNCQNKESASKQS
The description is as above. In kind it is binding. The note with it: 5 mM ATP, 5 mM CoA or 0.1 mM MLN8237; for CoA dependent on non-reducing conditions. As for the experimental part:
as §1, §2

Assay [3] has as its target T5, Aurora A (active), T288 phosphorylated (Homo sapiens, UniProt O14965).
T5 construct: For enzyme and DSF assays, full-length human Aurora A and Aurora B and 1–43 TPX2 were produced; made in house; host or cells: E. coli
T5 sequence (O14965 1-403): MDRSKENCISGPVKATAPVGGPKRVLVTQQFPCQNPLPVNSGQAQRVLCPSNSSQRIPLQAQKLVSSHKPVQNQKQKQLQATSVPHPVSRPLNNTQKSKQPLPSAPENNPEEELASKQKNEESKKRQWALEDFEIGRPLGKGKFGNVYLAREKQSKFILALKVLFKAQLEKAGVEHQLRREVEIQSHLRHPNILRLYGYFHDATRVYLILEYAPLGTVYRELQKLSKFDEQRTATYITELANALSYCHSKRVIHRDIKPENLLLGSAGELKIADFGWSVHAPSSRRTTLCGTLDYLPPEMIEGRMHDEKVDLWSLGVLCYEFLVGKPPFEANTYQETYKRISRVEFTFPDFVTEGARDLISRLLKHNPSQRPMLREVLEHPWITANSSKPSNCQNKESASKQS
Kind of assay: Lanthascreen Eu Kinase FRET binding assay. The note with it: T288 phosphorylated Aurora A; read-out: Aurora A (active) IC50 (μM), binding assay. As to the method: (§3) A Lanthascreen Eu Kinase FRET Binding Assay (Invitrogen) was employed to determine IC50 values for the interaction of Aurora A with CoA, dpCoA, ATP, and ADP. […] Recombinant Aurora A was incubated with Europium-conjugated anti-histidine tag antibody and an Alexa Fluor 647-labelled tracer, which binds to the ATP binding pocket of Aurora A. The close proximity of the anti-histidine (epitope-tag) antibody and the tracer results in a high degree of FRET (fluorescence resonance energy transfer) from the europium donor fluorophore to the Alexa Fluor 647 acceptor fluorophore. ATP-competitive inhibitors, such as CoA, displace the tracer from the active site, causing a loss of FRET signal. Assay set-up was performed as described by the manufacturer. Briefly, the time-resolved fluorescence resonance energy transfer assay (TR-FRET) was performed in black, low volume 384 well plates (Corning). Each well contained 5 nM kinase, 2 nM Eu-anti-His antibody and 10 nM kinase tracer 236 in kinase buffer A (50 mM Hepes pH 7.5, 10 mM MgCl2, 1 mM […], 0.01% (v/v) Brij-35), varying amounts of CoA, dpCoA, ATP, and ADP. The reaction mix was incubated for 1h at room temperature. The signal was measured at 665/620 nm emission ratio using BMG LABTECH plate reader (PHERAstar). All assays were performed using duplicates. The 11-point response curves were generated using GraphPad Prism software from the inhibition data generated.
For orientation: TR-FRET usually uses a lanthanide donor and a delayed reading to cut background.

The target in assay [4] is T6, Aurora A (inactive), unphosphorylated (PP1-treated) (Homo sapiens, UniProt O14965).
T6 construct: For enzyme and DSF assays, full-length human Aurora A and Aurora B and 1–43 TPX2 were produced; made in house; host or cells: E. coli
T6 sequence (O14965 1-403): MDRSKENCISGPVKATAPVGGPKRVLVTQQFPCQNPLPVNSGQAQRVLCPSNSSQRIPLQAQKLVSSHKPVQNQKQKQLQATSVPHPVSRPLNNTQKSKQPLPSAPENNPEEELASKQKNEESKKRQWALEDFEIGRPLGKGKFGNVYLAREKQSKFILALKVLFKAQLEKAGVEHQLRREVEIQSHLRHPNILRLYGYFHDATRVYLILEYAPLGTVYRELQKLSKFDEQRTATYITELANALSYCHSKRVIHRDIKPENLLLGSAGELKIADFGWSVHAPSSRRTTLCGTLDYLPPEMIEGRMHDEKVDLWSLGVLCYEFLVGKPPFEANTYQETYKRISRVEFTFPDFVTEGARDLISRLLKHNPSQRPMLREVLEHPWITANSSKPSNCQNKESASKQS
Put plainly: Lanthascreen Eu Kinase FRET binding assay. As for the experimental part:
as §3

The target of the next assay is T7, Aurora A (active) (Homo sapiens, UniProt O14965).
T7 construct: Bacterially expressed full-length His-Aurora A was used to determine the IC50 value for CoA; made in house; host or cells: E. coli BL21 (DE3) pLysS
T7 sequence (O14965 1-403): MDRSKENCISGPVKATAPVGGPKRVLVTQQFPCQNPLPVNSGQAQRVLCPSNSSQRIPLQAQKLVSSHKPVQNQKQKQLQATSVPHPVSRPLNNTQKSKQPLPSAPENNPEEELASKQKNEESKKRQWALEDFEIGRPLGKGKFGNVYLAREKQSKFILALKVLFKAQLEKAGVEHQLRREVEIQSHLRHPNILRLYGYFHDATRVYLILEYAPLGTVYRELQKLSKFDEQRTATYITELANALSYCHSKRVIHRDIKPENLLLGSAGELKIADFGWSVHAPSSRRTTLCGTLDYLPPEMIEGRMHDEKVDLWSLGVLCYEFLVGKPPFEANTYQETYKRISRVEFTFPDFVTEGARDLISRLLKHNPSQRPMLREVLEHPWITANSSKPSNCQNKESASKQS
Kind of assay: In vitro Aurora A kinase assay (γ33P-ATP incorporation into myelin basic protein). In kind it is biochemical. To be noted: 5 μM ATP, absence of DTT; read-out: IC50, Aurora A kinase activity. As to the method: Profiling of 117 protein kinases with CoA, dpCoA and ADP was carried out at the International Centre for Protein Kinase Profiling at the University of Dundee. Each compound was tested in vitro, in duplicate, at 100 μM final concentration using recombinant kinases, model substrates and optimal concentrations of ATP. Bacterially expressed full-length His-Aurora A was used to determine the IC50 value for CoA (in the presence or absence of DTT), dpCoA, ADP and desulfo-CoA. The assay was performed in the presence of 5 μM competing ATP. To examine whether the inhibitory effect of CoA on Aurora A is modulated by TPX2, IC50 values for CoA were also generated in the presence and absence of 1 μg TPX2 (residues 1–43) fragment.
Aurora A kinase activity was assayed by measuring incorporation of γ^33P-ATP into myelin basic protein (Sigma). Purified recombinant protein (100 ng) was incubated at room temperature for 30 min in a total volume of 15 μl containing 50 mM HEPES pH 7.5, 10 mM MgCl2, 1 mM EGTA, 0.05% Brij-35, 0.5 mg/ml myelin basic protein, and 5 μM γ^33P-ATP (100–10,000 dpm/pmol). The reaction was stopped by spotting the reaction mixture onto squares of P81 phosphocellulose ion exchange paper (Whatmann), which were then immersed in 1.5% (v/v) phosphoric acid. After washing twice in 1% phosphoric acid followed by two washes in distilled water, the papers were air dried and radioactivity was counted by a scintillation counter and recorded by Quantasmart version 2.03.

The subject of assay [5] is FLAG-tagged Aurora A in HEK293/Pank1β cells. Put plainly: Aurora A Thr 288 phosphorylation and dimerization in cells treated with oxidising agents (immunoblot). The format is cell-based, human. The note with it: 30 min treatment. (In general: Immunoblotting shows a protein as a band on a membrane.)
Assay [6] shares this test system. Kind of assay: Aurora A CoAlation in cells treated with oxidising agents (FLAG immunoprecipitation, anti-CoA immunoblot). The note with it: 30 min; 250 μM H2O2, 500 μM diamide, 50 μM menadione, 10 μM phenylarsine oxide. In kind it is cell-based, human.

Turning to `Nc1ncnc2c1ncn2[C@@H]1O[C@H](COP(=O)(O)O)[C@@H](O)[C@H]1O` [AMP], the “Disruption of bipolar spindle formation and chromosome alignment” value in the assay on mouse oocytes is on record as “not”.
For the compound `Nc1ncnc2c1ncn2[C@@H]1O[C@H](COP(=O)(O)OP(=O)(O)OP(=O)(O)O)[C@@H](O)[C@H]1O` [ATP], on C290A Aurora A, the “Ligand binding / thermal stabilization” value is listed as “still bound”. On T217E Aurora A, the Ligand-induced thermal shift entry is reported as “stabilization”. In addition, the “Ligand interaction by thermal shift” value in assay [1] is “severely blunted”. The “Change in thermal stability (ΔTm)” value in assay [2] is on record as “marked change in thermal stability”. Also, the values for the IC50 in assay [3] and in assay [4] were 0.2 µM and 3 µM, respectively.
`COc1cc(Nc2ncc3c(n2)-c2ccc(Cl)cc2C(c2c(F)cccc2OC)=NC3)ccc1C(=O)O` [MLN8237, alisertib]: the Ligand-induced thermal shift result on T217E Aurora A is recorded as “stabilization”. Besides, in [2], the “Change in thermal stability (ΔTm)” value was “marked change in thermal stability”.
`CCNC(=O)CCNC(=O)[C@H](O)C(C)(C)COP(=O)(O)OP(=O)(O)OC[C@H]1O[C@@H](n2cnc3c(N)ncnc32)[C@H](O)[C@@H]1OP(=O)(O)O` [desulfo-CoA]: the IC50 at Aurora A (active) stood at 160000 nM.
Consider `CN(C)C(=O)/N=N/C(=O)N(C)C` [diamide], for which the “Formation of Aurora A dimers in cells” value in assay [5] (non-reducing conditions) is listed as “clearly observed”. The “Aurora A phosphorylation at Thr 288 in cells” value in [5] (samples separated in the presence of DTT) was “promoted an increase”. Besides, in [6], the “CoAlation of transiently expressed Aurora A in cells” value is listed as “strongly induced”.
